In brackets after ≈: the same amount, converted by molar mass. Like-named read-outs stand apart in the source and are kept apart here.
Experiments:
[1] = target: human dopamine D2S receptor (Homo sapiens, UniProt P14416); assay: Human dopamine D2S receptor radioligand binding assay (Eurofins); conditions: for % Inhibition at 10 μM D2S: [3H]Spiperone binding, Eurofins Discovery
[2] = target: Human recombinant dopamine D2L receptor (Homo sapiens, UniProt P14416); assay: Human dopamine D2L receptor radioligand binding assay (Eurofins); conditions: for % Inhibition at 10 μM D2L: [3H]Spiperone binding, Eurofins Discovery
Chain of Human recombinant dopamine D2L receptor (P14416 whole entry): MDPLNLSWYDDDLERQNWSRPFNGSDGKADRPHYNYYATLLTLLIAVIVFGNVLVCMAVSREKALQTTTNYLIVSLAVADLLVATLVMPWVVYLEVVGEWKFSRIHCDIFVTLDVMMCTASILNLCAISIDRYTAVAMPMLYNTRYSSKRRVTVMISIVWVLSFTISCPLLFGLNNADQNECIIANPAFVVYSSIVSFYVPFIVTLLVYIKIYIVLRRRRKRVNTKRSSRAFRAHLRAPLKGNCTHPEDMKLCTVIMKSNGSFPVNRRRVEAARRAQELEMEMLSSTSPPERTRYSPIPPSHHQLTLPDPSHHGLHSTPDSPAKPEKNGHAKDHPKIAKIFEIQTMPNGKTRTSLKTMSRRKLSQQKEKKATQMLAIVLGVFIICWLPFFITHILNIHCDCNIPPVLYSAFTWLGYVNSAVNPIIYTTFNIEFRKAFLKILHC

[3] = target: human dopamine D3 receptor (Homo sapiens, UniProt P35462); assay: Human dopamine D3 receptor radioligand binding assay (Eurofins); conditions: for % Inhibition at 10 μM D3: [3H]Spiperone binding, Eurofins Discovery
Chain of human dopamine D3 receptor (P35462 whole entry): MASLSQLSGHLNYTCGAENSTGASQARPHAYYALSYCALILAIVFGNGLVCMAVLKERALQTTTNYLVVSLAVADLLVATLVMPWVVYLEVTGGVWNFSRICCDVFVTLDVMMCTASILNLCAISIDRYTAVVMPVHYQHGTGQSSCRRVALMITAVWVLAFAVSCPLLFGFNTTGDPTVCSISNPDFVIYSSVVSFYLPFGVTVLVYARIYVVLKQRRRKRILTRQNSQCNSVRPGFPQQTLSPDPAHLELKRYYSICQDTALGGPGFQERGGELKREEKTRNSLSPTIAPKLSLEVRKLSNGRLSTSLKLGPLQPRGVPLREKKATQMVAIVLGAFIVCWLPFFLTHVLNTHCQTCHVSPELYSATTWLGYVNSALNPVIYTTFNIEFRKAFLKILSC

[4] = target: T1, human dopamine D4.4 receptor (Homo sapiens, UniProt P21917); assay: Human dopamine D4.4 receptor radioligand binding assay (Eurofins); parameters: % Inhibition at D4.4: dose or concentration left out as unconfirmed; conditions: for % Inhibition at 10 μM D4.4: [3H]Spiperone binding; for inhibition at 10 µM: read-out: % Inhibition at 10 μM D4.4
T1 sequence (P21917 1-419): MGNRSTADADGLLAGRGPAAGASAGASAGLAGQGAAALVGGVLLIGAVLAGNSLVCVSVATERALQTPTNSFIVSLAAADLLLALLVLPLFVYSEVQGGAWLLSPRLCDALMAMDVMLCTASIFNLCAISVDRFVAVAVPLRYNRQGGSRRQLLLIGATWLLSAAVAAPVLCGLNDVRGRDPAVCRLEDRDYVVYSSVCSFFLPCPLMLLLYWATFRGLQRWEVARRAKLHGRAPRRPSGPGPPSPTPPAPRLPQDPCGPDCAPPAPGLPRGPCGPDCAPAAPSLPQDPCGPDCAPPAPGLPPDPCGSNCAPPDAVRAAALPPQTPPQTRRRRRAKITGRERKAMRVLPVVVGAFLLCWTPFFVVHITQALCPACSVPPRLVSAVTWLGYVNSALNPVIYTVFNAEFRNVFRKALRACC

[5] = In vivo pharmacokinetics, intravenous cassette dosing in rats; parameters: species or system male Sprague-Dawley rats; conditions: rat
[6] = target: human dopamine D1 receptor (Homo sapiens, UniProt P21728); assay: Human dopamine D1 receptor radioligand binding assay (Eurofins); conditions: for % Inhibition at 10 μM D1: [3H]SCH-23390 binding, Eurofins Discovery
Chain of human dopamine D1 receptor (P21728 whole entry): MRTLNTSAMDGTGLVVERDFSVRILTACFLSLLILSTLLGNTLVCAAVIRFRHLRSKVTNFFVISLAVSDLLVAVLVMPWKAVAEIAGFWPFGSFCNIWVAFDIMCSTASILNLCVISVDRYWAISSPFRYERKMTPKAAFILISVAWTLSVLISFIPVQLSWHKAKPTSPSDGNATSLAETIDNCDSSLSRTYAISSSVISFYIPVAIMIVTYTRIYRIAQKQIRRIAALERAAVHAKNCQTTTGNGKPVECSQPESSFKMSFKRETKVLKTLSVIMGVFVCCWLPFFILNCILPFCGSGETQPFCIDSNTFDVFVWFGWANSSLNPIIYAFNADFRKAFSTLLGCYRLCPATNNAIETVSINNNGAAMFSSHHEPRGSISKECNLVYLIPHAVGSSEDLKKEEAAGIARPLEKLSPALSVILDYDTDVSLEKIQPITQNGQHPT

[7] = Microsomal stability, human hepatic microsomes; assay type: in vitro ADME; conditions: predicted hepatic clearance
[8] = Plasma protein binding, equilibrium dialysis, human plasma; assay type: in vitro ADME
[9] = Microsomal stability, rat hepatic microsomes; assay type: in vitro ADME; conditions: predicted hepatic clearance
[10] = Kinetic solubility (shake flask, McIlvaine buffer); assay type: physicochemical; conditions: for Solubility pH = 2.2 / Solubility pH = 6.8: kinetic, 100 µM, 18 hours room temperature; for Solubility pH = 2.2: McIlvaine buffer pH 2.2; for Solubility pH = 6.8: McIlvaine buffer pH 6.8; for solubility at 18 h: McIlvaine buffer, kinetic from dmso stock
[11] = Plasma protein binding, equilibrium dialysis, rat plasma; assay type: in vitro ADME
[12] = read-out: D4.4 IC50, Eurofins Discovery
[13] = read-out: D4.4 Ki, Eurofins Discovery
[14] = intravenous 0.2 mg/kg, cassette

Chain of human dopamine D2S receptor (P14416 1-414 isoform P14416-2): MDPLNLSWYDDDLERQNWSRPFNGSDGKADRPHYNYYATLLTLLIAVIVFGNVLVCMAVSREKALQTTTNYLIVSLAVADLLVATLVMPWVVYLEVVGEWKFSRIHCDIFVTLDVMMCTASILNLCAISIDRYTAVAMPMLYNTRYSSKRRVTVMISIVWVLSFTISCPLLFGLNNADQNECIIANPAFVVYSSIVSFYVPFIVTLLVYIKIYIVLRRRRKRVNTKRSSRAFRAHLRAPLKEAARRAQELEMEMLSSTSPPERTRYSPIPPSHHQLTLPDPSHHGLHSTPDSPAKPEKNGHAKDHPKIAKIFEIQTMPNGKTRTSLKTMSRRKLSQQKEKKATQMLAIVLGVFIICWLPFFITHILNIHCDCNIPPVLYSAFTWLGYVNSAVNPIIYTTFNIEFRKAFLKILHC

| SMILES | % Inhibition at 10 μM D2S [1] [%] | % Inhibition at 10 μM D2L [2] [%] | % Inhibition at 10 μM D3 [3] [%] | % Inhibition at 10 μM D4.4 ([4]; Eurofins Discovery) [%] | IC50 [4, 12] [nM] | Ki [4, 13] [nM] | % Inhibition at 10 μM D1 [6] [%] | Solubility pH = 2.2 [10] [µM] | Solubility pH = 6.8 [10] [µM] | other results |
| --- | --- | --- | --- | --- | --- | --- | --- | --- | --- | --- |
| Cc1ccc(C(=O)N2CC3(CCN(Cc4ccc(F)c(F)c4)CC3)C2)cc1C [Compound 4] | 8 | 9 | 9 | 88 | 2790 | 250 | 21 | 95.3 | 88.9 | AUC (area under the curve) [5, 14]: 28.7 ng·h/mL; CLp (plasma clearance) [5, 14]: 116 mL/min/kg; Vss (volume of distribution at steady-state) [5, 14]: 5.52 L/kg; t1/2 (terminal phase plasma half-life) [5, 14]: 1.05 h; in vivo clearance relative to hepatic blood flow (superhepatic clearance) ([5]; intravenous dosing): > 100 % Qh; CLH human (hepatic clearance) [7]: 16.9 mL/min/kg; fu,plasma human (fraction unbound) [8]: 0.01; CLH rat (hepatic clearance) [9]: 59.1 mL/min/kg; fu,plasma rat (fraction unbound) [11]: 0.03 |
| Cc1ccc(C(=O)N2CC3(CCN(Cc4c[nH]c5cc(F)ccc45)CC3)C2)cc1C [Compound 5] | 25 | 24 | 27 | 94 | 200 | 56 | 35 | 83.4 | 87.0 |  |
| Cc1ccc(C(=O)N2CC3(CCN(Cc4n[nH]c5cc(F)ccc45)CC3)C2)cc1C [Compound 6] | 15 | 3 | 25 | 90 | 150 | 43 | −4 | 89.4 | 83.1 |  |
| Cc1ccc(C(=O)N2CC3(CCN(Cc4ccc(Cl)c(Cl)c4)CC3)C2)cc1C [Compound 9] | 25 | 24 | 62 | 91 | 81 | 22 | 24 | 84.2 | 31.6 |  |
| COc1ncc(CN2CCC3(CC2)CN(C(=O)c2ccc(C)c(C)c2)C3)cc1F [Compound 10] |  |  |  |  |  |  |  |  |  | inhibition at 10 µM [4]: 66% |
| Cc1ccc(C(=O)N2CC3(CCN(Cc4cn(C)c5ccccc45)CC3)C2)cc1C [Compound 12] |  |  |  |  |  |  |  |  |  | inhibition at 10 µM ([1]; read-out: % Inhibition at 10 μM D2S): 24%; inhibition at 10 µM ([2]; read-out: % Inhibition at 10 μM D2L): 16%; inhibition at 10 µM ([3]; read-out: % Inhibition at 10 μM D3): 19%; IC50 [4]: 280 nM; Ki [4]: 76 nM; inhibition at 10 µM [4]: 92%; inhibition at 10 µM ([6]; read-out: % Inhibition at 10 μM D1): 27%; solubility at 18 h ([10]; pH 2.2, aqueous buffer): 88.3 µM (≈ 35.5 µg/mL); solubility at 18 h ([10]; pH 6.8, aqueous buffer): 87.4 µM (≈ 35.1 µg/mL) |
| Cc1ccc(C(=O)N2CC3(CCN(Cc4c[nH]c5cc(F)ccc45)CC3C)C2)cc1C (stereo not drawn) [Compound 13] |  |  |  | 85 | 990 | 270 |  | 90.5 | 88.2 |  |
| Cc1ccc(C(=O)N2CC3(CCN(Cc4c[nH]c5cc(F)ccc45)C(C)C3)C2)cc1C (stereo not drawn) [Compound 14] |  |  |  | 89 | 1920 | 530 |  |  |  |  |
| O=C(c1ccc(Cl)cc1Cl)N1CC2(CCN(Cc3c[nH]c4cc(F)ccc34)CC2)C1 [Compound 19] | 14 | 23 | 30 | 92 | 82 | 23 | 21 |  |  |  |
| O=C(c1cc(Cl)cc(Cl)c1)N1CC2(CCN(Cc3c[nH]c4cc(F)ccc34)CC2)C1 [Compound 28] |  |  |  | 49 |  |  |  |  |  |  |
| Cc1ccc(C(=O)N2CC3(CCN(Cc4c[nH]c5cc(F)ccc45)CC3)C2)cc1 [Compound 29] | 5 | 20 | 13 | 99 | 62 | 17 | 27 | 91.9 | 85.3 | CLH human (hepatic clearance) [7]: 17.3 mL/min/kg; fu,plasma human (fraction unbound) [8]: 0.05; CLH rat (hepatic clearance) [9]: 49.2 mL/min/kg; fu,plasma rat (fraction unbound) [11]: 0.15 |
| Cc1cccc(C(=O)N2CC3(CCN(Cc4c[nH]c5cc(F)ccc45)CC3)C2)c1 [Compound 32] | 18 | 18 | 12 | 92 | 490 | 140 | 10 | 91.2 | 87.0 | CLH human (hepatic clearance) [7]: 14.7 mL/min/kg; fu,plasma human (fraction unbound) [8]: 0.06; CLH rat (hepatic clearance) [9]: 46.2 mL/min/kg; fu,plasma rat (fraction unbound) [11]: 0.14 |
| Cc1ccc(S(=O)(=O)N2CC3(CCN(Cc4c[nH]c5cc(F)ccc45)CC3)C2)cc1 [Compound 34] | 17 | 50 | 49 | 94 | 120 | 33 | 47 |  |  |  |
| Cc1ccc(C(=O)N2CCC3(CCN(Cc4c[nH]c5cc(F)ccc45)CC3)C2)cc1C [Compound 42, (3,4-dimethylphenyl)(8-[(6-fluoro-1H-indol-3-yl)methyl)-2,8-diazaspiro[4.5]decan-2-yl)methanone] |  |  |  |  |  |  |  |  |  | % Inhibition at D4.4 ([4]; screened at Eurofins): 44% |

From article PMC11191600 (ACS chemical neuroscience, 2024)
